From the supplement of paper PMC4121296

Experiments:
Settings in all cases: exposure: 5-72 hpf
[1] = tested on: Danio rerio embryo (fli1:egfp); assay: heart rate at 72 hpf (beats per minute); higher = faster heart rate
Procedure: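 fli1:egfp zebrafish embryos exposed 5-72 hpf to chemical (0.05-50 µM, 0.1% DMSO) in 384-well plates; heart rate at 72 hpf quantified from stream acquisitions by semi-automated MetaXpress journal (peak counting); only embryos in concentrations passing survival/body-length criteria analyzed.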

[2] = tested on: Danio rerio embryo (fli1:egfp); assay: body length at 72 hpf (µm); higher = longer body (less growth inhibition)
Procedure: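 Transgenic fli1:egfp zebrafish embryos (one per well, 384-well plate) exposed statically from 5 to 72 hpf at 28 °C to chemical (0.05-50 µM, 0.1% DMSO); at 72 hpf anesthetized and imaged on ImageXpress; body length of live, hatched, correctly oriented embryos measured by automated MetaXpress journal. Dead/unhatched/misoriented embryos have no value.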

[3] = tested on: Danio rerio embryo (fli1:egfp); assay: pericardial area at 72 hpf (image area units (not stated)); higher = larger pericardial area (edema)
Procedure: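 fli1:egfp zebrafish embryos exposed 5-72 hpf to chemical (0.05-50 µM, 0.1% DMSO); pericardial area at 72 hpf measured by semi-automated MetaXpress journal (increase indicates edema).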

[4] = tested on: Danio rerio embryo (fli1:egfp); assay: arterial (dorsal aorta) circulation score at 72 hpf (normalized DA-Max (arbitrary units)); higher = more circulation
Procedure: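 fli1:egfp zebrafish embryos exposed 5-72 hpf to chemical (0.05-50 µM, 0.1% DMSO); arterial circulation at 72 hpf quantified from stream acquisitions of the dorsal aorta by FFT-based analysis (DA-Max, normalized dorsal aorta signal); only concentrations passing survival/body-length criteria analyzed.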

[5] = tested on: Danio rerio embryo (fli1:egfp); assay: intersegmental vessel area normalized to body length at 72 hpf (ISV area / body length (normalized units)); higher = more vessel area
Procedure: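 fli1:egfp zebrafish embryos exposed 5-72 hpf to chemical (0.05-50 µM, 0.1% DMSO); intersegmental vessel (ISV) eGFP area quantified by MetaXpress journal at 72 hpf and normalized to body length.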

C=CCOC(=O)C(C)(C)OC(=O)c1cc(-n2c(=O)cc(C(F)(F)F)n(C)c2=O)ccc1Cl [Butafenacil]
Settings	arterial, [4]	body length at 72 hpf, [2]	heart rate at 72 hpf, [1]	intersegmental vessel area normalized, [5]	pericardial area at 72 hpf, [3]
0.05 µM	11.5	2960	182	72.8	15900
0.098 µM	11.8	2990	180	61.6	14800
0.195 µM	10.1	2960	191	70.6	16200
0.39 µM	7.84	3000	185	68.9	15700
0.78 µM	5.12	2970	172	55.9	18900
1.56 µM	5.32	2970	168	61.2	18800
3.125 µM	5.76	2980	175	69.3	18700
6.25 µM	4.56	3010	184	72.8	28100
12.5 µM	3.81	2860	163	81.2	36500

CO/N=C(/C(=O)OC)c1ccccc1CO/N=C(\C)c1cccc(C(F)(F)F)c1 [Trifloxystrobin]
Settings	arterial, [4]	body length at 72 hpf, [2]	heart rate at 72 hpf, [1]	intersegmental vessel area normalized, [5]	pericardial area at 72 hpf, [3]
0.05 µM	12.1	2950	172	71	12800
0.098 µM	11.6	3060	171	73.5	10600
0.195 µM	15.7	3030	167	70.2	12300
0.39 µM	15	2970	173	67.6	12200
0.78 µM	14.9	3000	166	68.9	13900

COC(=O)N(C(=O)N1CO[C@@]2(C(=O)OC)Cc3cc(Cl)ccc3C2=N1)c1ccc(OC(F)(F)F)cc1 [Indoxacarb]
Settings	arterial, [4]	body length at 72 hpf, [2]	heart rate at 72 hpf, [1]	intersegmental vessel area normalized, [5]	pericardial area at 72 hpf, [3]
0.05 µM	9.56	2980	169	81.5	14200
0.098 µM	10.3	3010	171	81.7	13400
0.195 µM	10.5	2970	176	85.7	15600
0.39 µM	8.96	2950	183	80.7	13200
0.78 µM	8.19	2990	185	80.1	14100
1.56 µM	10.8	2960	181	85.1	12300
3.125 µM	9.26	3010	194	83.8	12700
6.25 µM	10.5	3020	188	87.7	13000
12.5 µM	14.1	2900	181	70.6	14200

CCc1nn(C)c(C(=O)NCc2ccc(C(C)(C)C)cc2)c1Cl [Tebufenpyrad]
Settings	arterial, [4]	body length at 72 hpf, [2]	heart rate at 72 hpf, [1]	intersegmental vessel area normalized, [5]	pericardial area at 72 hpf, [3]
0.05 µM	9.08	2980	155	75.7	13400
0.098 µM	10.5	2960	166	75.9	13600
0.195 µM	10.6	2960	160	78.8	13000
0.39 µM	11.6	2990	166	76.5	14800
0.78 µM	14.2	2950	174	77	16300

CCOC(=O)C(Cl)Cc1cc(-n2nc(C)n(C(F)F)c2=O)c(F)cc1Cl (configuration not stated) [Carfentrazone-ethyl]
Settings	arterial, [4]	body length at 72 hpf, [2]	heart rate at 72 hpf, [1]	intersegmental vessel area normalized, [5]	pericardial area at 72 hpf, [3]
0.05 µM	13.5	2950	186	53.3	13800
0.098 µM	13.1	2970	172	55.6	15600
0.195 µM	14.4	2980	187	64.4	15200
0.39 µM	12.6	2990	190	61.5	17900
0.78 µM	12.8	3030	194	65.4	17700
1.56 µM	11.6	2950	186	56.7	18200
3.125 µM	8.55	2940	190	64.7	19600
6.25 µM	8.33	2970	184	67.9	25600

CC1(C)C(C(=O)OC(C#N)c2cccc(Oc3ccccc3)c2)C1(C)C (configuration not stated) [Fenpropathrin]
Settings	arterial, [4]	body length at 72 hpf, [2]	heart rate at 72 hpf, [1]	intersegmental vessel area normalized, [5]	pericardial area at 72 hpf, [3]
0.05 µM	18.5	2970	183	83.1	14600
0.098 µM	13.8	2950	197	80.8	13400
0.195 µM	11.2	2970	191	73.2	14500
0.39 µM	10.7	2940	192	83.8	14400
0.78 µM	12.6	2780	192	85.4	13200
1.56 µM	20.9	2720	188	90.6	13400
3.125 µM	21.2	2710	186	82.2	13600
6.25 µM	–	2640	–	–	–
12.5 µM	–	2590	–	–	–

CCCCSP(=O)(SCCCC)SCCCC [Tribufos]
Settings	arterial, [4]	body length at 72 hpf, [2]	heart rate at 72 hpf, [1]	intersegmental vessel area normalized, [5]	pericardial area at 72 hpf, [3]
0.05 µM	11.1	2900	166	79.6	13400
0.098 µM	14.1	2950	161	84.8	13600
0.195 µM	14.9	2990	182	92.3	14700
0.39 µM	15.4	2940	169	83.8	13700
0.78 µM	14.8	2940	167	86	14600
1.56 µM	16.1	2910	164	87.5	14200
3.125 µM	14.5	2980	172	81.8	13300
6.25 µM	15	2970	176	94.4	15200
12.5 µM	13.9	2870	166	81.3	13400
